Reference: US20260137662A1, “CD11B AGONISTS FOR TREATMENT OF AUTOIMMUNE DISEASE” (Rush University Medical Center, priority 2022, published 2026)

What was measured:
[1] = test system: IMQ-induced mouse model of lupus; assay: IMQ-induced mouse model of lupus, LA1 started 0, 2 or 4 weeks after disease induction; assay type: in vivo, wild type C57BL/6 mice
Protocol: FIG. 12A illustrates levels of anti-dsDNA antibodies measured weekly in mice co-treated with IMQ and LA1 (30 mg/kg, BID) for 8 weeks. Each dot represents mean +/−SEM (n=4).
FIG. 12B illustrates levels of anti-dsDNA antibodies measured weekly in mice treated with IMQ for 8 weeks starting at week 0 and additionally treated with LA1 (30 mg/kg, BID) for 6 weeks, starting at week 2. Each dot represents mean +/−SEM (n=4).
FIG. 12C illustrates levels of anti-dsDNA antibodies measured weekly in mice treated with IMQ for 8 weeks starting at week 0 and additionally treated with LA1 (30 mg/kg, BID) for 4 weeks, starting at week 4. Each dot represents mean +/−SEM (n=4).
FIG. 12D illustrates levels of biomarker suPAR measured weekly in mice co-treated with IMQ and LA1 (30 mg/kg, BID) for 8 weeks. Each dot represents mean +/−SEM (n=4).
FIG. 12E illustrates levels of biomarker suPAR measured weekly in mice treated with IMQ for 8 weeks starting at week 0 and additionally treated with LA1 (30 mg/kg, BID) for 6 weeks, starting at week 2. Each dot represents mean +/−SEM (n=4).
FIG. 12F illustrates levels of biomarker suPAR measured weekly in mice treated with IMQ for 8 weeks starting at week 0 and additionally treated with LA1 (30 mg/kg, BID) for 4 weeks, starting at week 4. Each dot represents mean +/−SEM (n=4).
FIG. 12G illustrates an experimental timeline for the measurement of anti-dsDNA antibody and suPAR levels in mice treated with IMQ and LA1 for 8 weeks, the LA1 treatment initiated at various time points.
To assess therapeutic efficacy of LA1 in a TLR7-dependent SLE murine model, an IMQ-induced mouse model of lupus (Yokogawa et al., 2014) was used. To induce disease, wild type C57BL/ 6 mice (WT) were treated with IMQ cream (Aldara) over the course of 8 weeks. IMQ-induced mice were then treated with LA 1, the treatment initiated at 0, 2, and 4 weeks after disease induction, as shown in FIG. 12G. Anti-dsDNA antibody and suPAR levels were measured in the murine serum at various time points during treatment.

TLR4 mediated pathways = assay: Relative gene expression in myeloid cells stimulated with LPS; assay type: cell-based; details: LPS (50ng/ml) and LA1 (20 uM) co-treatment, 4 hour
Protocol: FIG. 4A illustrates the relative gene expression of biomarker IL-1bin myeloid cells after 4 hour of treatment with vehicle DMSO (UT), LA1 (20 uM), LPS (50ng/ml), or LPS and LA1 co-treatment.
FIG. 4B illustrates the relative gene expression of biomarker IL-18 in myeloid cells after 4 hour of treatment with vehicle DMSO (UT), LA1 (20 uM), LPS (50ng/ml), or LPS and LA1 co-treatment.
FIG. 4C illustrates the relative gene expression of biomarker uPAR in myeloid cells after 4 hour of treatment with vehicle DMSO (UT), LA1 (20 uM), LPS (50ng/ml), or LPS and LA1 co-treatment.
FIG. 4D illustrates the relative gene expression of biomarker IL-6 in myeloid cells after 4 hour of treatment with vehicle DMSO (UT), LA1 (20 uM), LPS (50ng/ml), or LPS and LA1 co-treatment.
The impact of CD11b activation by LA1 on TLR4 mediated pathways was similarly assessed by stimulating myeloid cells with LPS, a known TLR4 stimulant, and co-treating with LA1.

TLR7 mediated pathways = assay: Relative gene expression (RT-PCR) in myeloid cells stimulated with imiquimod; assay type: cell-based; details: IMQ (20 ug/mL) and LA1 (20 uM) co-treatment, 4 hours
Protocol: FIG. 3A illustrates transcriptional levels of biomarker IL-1b in myeloid cells after 4 hours of treatment with vehicle DMSO (UT), LA1 (20 uM), imiquimod (IMQ) (20 ug/mL), or IMQ and LA1 co-treatment. Bars show mean with SD (N=3) (*P<0.05, **P<0.01, ***P<0.001, ***P<0.0001).
FIG. 3B illustrates transcriptional levels of biomarker uPAR in myeloid cells after 4 hours of treatment with vehicle DMSO (UT), LA1 (20 uM), imiquimod (IMQ) (20 ug/mL), or IMQ and LA1 co-treatment. Bars show mean with SD (N=3) (*P<0.05, **P<0.01, ***P<0.001, ***P<0.0001).
FIG. 3C illustrates transcriptional levels of biomarker IL-6 in myeloid cells after 4 hours of treatment with vehicle DMSO (UT), LA1 (20 uM), imiquimod (IMQ) (20 ug/mL), or IMQ and LA1 co-treatment. Bars show mean with SD (N=3) (*P<0.05, **P<0.01, ***P<0.001, ***P<0.0001).
FIG. 3D illustrates transcriptional levels of biomarker NLRP3 in myeloid cells after 4 hours of treatment with vehicle DMSO (UT), LA1 (20 uM), imiquimod (IMQ) (20 ug/mL), or IMQ and LA1 co-treatment. Bars show mean with SD (N=3) (*P<0.05, **P<0.01, ***P<0.001, ***P<0.0001).
The impact of CD11b activation by LA1 on TLR7 mediated pathways was assessed by treating myeloid cells with imiquimod (IMQ), a known TLR7 stimulant, and co-treating myeloid cells with IMQ and LA1. Relative gene expression of various biomarkers was assessed by RT-PCR.

[2] = LA1 30 mg/kg BID co-treated with IMQ for 8 weeks (start week 0)
[3] = LA1 30 mg/kg BID started four weeks after initial IMQ (after disease onset)
[4] = LA1 30 mg/kg BID started two weeks after initial IMQ (after disease onset)

**Q.** How did the “anti-dsDNA antibody levels in serum” value [1, 2] turn out when O=C(O)c1ccc(-c2ccc(/C=C3\SC(=S)N(Cc4ccccc4)C3=O)o2)cc1 [LA1, (Z)-4-(5-((3-benzyl-4-oxo-2-thioxothiazolidin-5-ylidene)methyl)furan-2-yl)benzoic acid] was run?
**A.** The value was “significantly reduced”.

**Q.** What about the “suPAR levels in serum” value [1, 2] of the same molecule?
**A.** The value was “significantly reduced”.

**Q.** And the “anti-dsDNA antibody levels in serum” value [1, 3]?
**A.** Its value is “significantly reduced”.

**Q.** What about the “suPAR levels in serum” value [1, 3] of the same molecule?
**A.** Its value is “significantly reduced”.

**Q.** And the “anti-dsDNA antibody levels in serum” value [1, 4]?
**A.** Its value is “significantly reduced”.

**Q.** What about the “suPAR levels in serum” value [1, 4] of the same molecule?
**A.** Its value is “significantly reduced”.

**Q.** What about the “expression of biomarker IL-1b” value (TLR4 mediated pathways) of the same molecule?
**A.** The value was “significantly decreased”.

**Q.** And the “expression of biomarker IL-6” value (TLR4 mediated pathways)?
**A.** Its value is “significantly decreased”.

**Q.** And the “expression of biomarker IL-18” value (TLR4 mediated pathways)?
**A.** The value was “significantly decreased”.

**Q.** And the “expression of biomarker uPAR” value (TLR4 mediated pathways)?
**A.** The value was “significantly decreased”.

**Q.** What about the “TLR7-dependent increase in IL-1b expression level” value (TLR7 mediated pathways) of the same molecule?
**A.** Its value is “significantly reduced”.

**Q.** What about the “TLR7-dependent increase in IL-6 expression level” value (TLR7 mediated pathways) of the same molecule?
**A.** The value was “significantly reduced”.

**Q.** What about the “TLR7-dependent increase in NLRP3 expression level” value (TLR7 mediated pathways) of the same molecule?
**A.** Its value is “significantly reduced”.

**Q.** And the “TLR7-dependent increase in uPAR expression level” value (TLR7 mediated pathways)?
**A.** The value was “significantly reduced”.
